Source: PubChem BioAssay (NCI)
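96-well plates; 48 h exposure; 5 concentrations. Endpoints by linear interpolation between flanking doses. Not reached: highest tested concentration assigned. GI50: concentration for 50% inhibition of growth. TGI marks complete inhibition of growth.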

Assays:
Assay in all cases: DTP human tumour cell line panel, 48 h
HCT-116 colon = system: HCT-116 colon
EKVX NSCLC = system: EKVX NSCLC
SNB-75 CNS = system: SNB-75 CNS
NCI/ADR-RES ovarian = system: NCI/ADR-RES ovarian
NCI-H226 lung = system: NCI-H226 lung
SF-268 CNS = system: SF-268 CNS
RXF 393 renal = system: RXF 393 renal
M14 melanoma = system: M14 melanoma
HS 578T breast = system: HS 578T breast
BT-549 breast = system: BT-549 breast

| SMILES | TGI (HCT-116 colon) [µM] | TGI (EKVX NSCLC) [µM] | TGI (SNB-75 CNS) [µM] | TGI (NCI/ADR-RES ovarian) [µM] | TGI (NCI-H226 lung) [µM] | TGI (SF-268 CNS) [µM] | TGI (RXF 393 renal) [µM] | TGI (M14 melanoma) [µM] | TGI (HS 578T breast) [µM] | TGI (BT-549 breast) [µM] | GI50 (HCT-116 colon) [µM] | GI50 (EKVX NSCLC) [µM] | GI50 (NCI/ADR-RES ovarian) [µM] | GI50 (NCI-H226 lung) [µM] | GI50 (SF-268 CNS) [µM] | GI50 (RXF 393 renal) [µM] | GI50 (M14 melanoma) [µM] | GI50 (HS 578T breast) [µM] | GI50 (SNB-75 CNS) [µM] | GI50 (BT-549 breast) [µM] |
| --- | --- | --- | --- | --- | --- | --- | --- | --- | --- | --- | --- | --- | --- | --- | --- | --- | --- | --- | --- | --- |
| CC(=O)[C@@]1(O)CC[C@H]2[C@@H]3C[C@H](C)C4=CC(=O)CC[C@]4(C)[C@H]3[C@@H](O)C[C@@]21C | > 100 | > 100 | > 100 | > 100 | > 100 | > 100 | > 100 | > 100 | > 100 | > 100 |  |  |  |  |  |  |  |  |  |  |
| O=C(/C=C/c1cccnc1)NCCCCC1CCCN(C(=O)c2ccccc2)C1 (stereo not drawn) | > 100 | > 100 | > 100 | > 100 | > 100 | > 100 | > 100 | > 100 | > 100 | > 100 | < 0.01 | > 63.1 | 0.0103 | > 79.5 | > 28.4 | > 100 | < 0.01 | 4.45 |  |  |
| Nc1ncnc2c1nc(Cl)n2C1OC2COP(=O)(O)OC2C1O (stereo not drawn) | > 300 | > 300 | > 213 | > 300 | > 155 | > 300 | > 300 | > 300 | > 280 | > 300 |  |  |  |  |  |  |  |  |  |  |
| Cc1cc(S(N)(=O)=O)c(S/C(CC(C)C)=N\Nc2ccc([N+](=O)[O-])cc2)cc1Cl | 13 | 31.3 | 18.7 | 19.2 | 7.77 | 23.1 | 19 | 16.5 | 30.1 | 31.7 | 3.53 | 16.6 | 5.9 | 2.82 | 7.21 | 4.13 | 4.99 | 11.9 | 4.05 | 17.7 |
| COc1ccc2c(=O)c3ccoc3n(CC=C(C)C)c2c1 | > 100 | > 100 | > 100 | 76.4 | > 100 | > 100 | > 81.1 | > 100 | > 100 | > 100 |  |  |  |  |  |  |  |  |  |  |
| c1ccc2[nH]c(-c3ccc(NN=Nc4ccncc4)cc3)nc2c1 | > 100 | 54.1 | > 100 | > 100 | > 100 | 74.4 | > 100 | > 100 | > 100 | > 100 | 26.3 | 11.2 | > 100 | > 100 | 4.81 | 58.1 | > 100 | > 100 | > 100 | 4.39 |
| CC(C)(O)CS(=O)(=O)Nc1ccc2c(c1)CCN(C(=O)COc1cccnc1)C2 | > 100 | > 100 | > 100 | > 100 | > 100 | > 100 | > 100 | > 100 | > 100 | > 100 | 0.0311 | > 100 | 1.47 | > 100 | > 100 | > 100 | 0.153 | > 100 | > 100 | 2.33 |
| Cn1c(/C=C(\C#N)c2ccccc2)nc2c(N3CCOCC3)nc(Cl)nc21 | 0.432 | 3.04 | 1.59 | 7.23 | 3.4 | 3.15 | 2.14 | 2.26 | 5.64 | 2.07 | 0.178 | 1.42 | 1.98 | 1.52 | 1.55 | 0.89 | 0.844 | 1.69 | 0.276 | 0.711 |
| O=C1CCCCCCCC/C=C\CC(c2ccco2)O1 (stereo not drawn) | 29.5 | 75.7 | 61.8 | > 100 | 64.1 | > 100 | 65.2 | 70.5 | > 100 | > 100 | 15.1 | 26.7 | 34.4 | 21 | 30.8 | 21.5 | 24.6 | 32.4 | 21.2 | 28.6 |
| Cc1cc2nc3c4cc(N)ccc4n(CCN(C)C)c3nc2cc1C | 10.9 | 12.5 | 6.82 | 9.95 | 4.1 | 6.89 | 2.72 | 2.88 | 9.81 | 8.73 | 0.365 | 1.59 | 0.501 | 0.896 | 1.43 | 0.912 | 1.12 | 2.06 | 1.16 | 2.23 |
